Patent publication US20170071203A1, “Active compound combinations having insecticidal properties” (BAYER CROPSCIENCE AKTIENGESELLSCHAFT, priority 2014, published 2017)

Experiments:
Type in all cases: in vivo
[1] = system: green peach aphid (Myzus persicae); test: Myzus persicae - spray test
Excerpt: (§1) The expected activity for a given combination of two active compounds can be calculated according to S. R. Colby, Weeds 15 (1967), 20-22 as follows:
(§2) • X is the kill rate, expressed in % of the untreated control, when active compound A is applied at an application rate of m g/ha or at a concentration of m ppm, • Y is the kill rate, expressed in % of the untreated control, when active compound B is applied at an application rate of n g/ha or at a concentration of n ppm and • E is the kill rate, expressed in % of the untreated control, when active compounds A and B is applied at application rates of m and n g/ha or at a concentration of m and n ppm, then
(§3) If the observed insecticidal efficacy of the combination is higher than the one calculated as “E”, then the combination of the two compounds is more than additive, i.e., there is a synergistic effect.
(§4) To produce a suitable preparation of active compound, 1 part by weight of active compound is mixed with the stated amount of solvents and is diluted with water, containing an emulsifier concentration of 1000 ppm, to the desired concentration. To produce a suitable preparation of a spore suspension the spores are diluted with emulsifier containing water to the desired concentration. Further test concentrations are prepared by dilution with emulsifier containing water.
Chinese cabbage (Brassica pekinensis) leaf disks infected with all instars of the green peach aphid (Myzus persicae), are sprayed with a preparation of the active ingredient of the desired concentration.
After the specified period of time, mortality in % is determined 100% means all aphids have been killed; 0% means none of the aphids have been killed. The mortality values determined thus are recalculated using the Colby-formula (see sheet 1).

[2] = system: two spotted spidermite (Tetranychus urticae); test: Tetranychus urticae - spray test, OP-resistant
Excerpt: as §1, §2, §3, §4
French bean (Phaseolus vulgaris) leaf disks which are heavily infested with all stages of the two spotted spidermite (Tetranychus urticae), are sprayed with a preparation of the active ingredient of the desired concentration.
After the specified period of time, mortality in % is determined. 100% means all spider mites have been killed and 0% means none of the spider mites have been killed. The mortality values determined thus are recalculated using the Colby-formula (see sheet 1).

[3] = system: larvae of the cotton boll worm (Heliothis armigera); test: Heliothis armigera - spray test
Excerpt: as §1, §2, §3
To produce a suitable preparation of active compound, 1 part by weight of active compound is mixed with the stated amount of solvent and is diluted with water, containing an emulsifier concentration of 1000 ppm, to the desired concentration. Further test concentrations are prepared by dilution with emulsifier containing water Ammonium salt and/or penetration enhancer in a dosage of 1000 ppm are added to the desired concentration if necessary.
Cotton plants (Gossypium hirsutum) are treated by being sprayed with the preparation of the active compound of the desired concentration and are infested with larvae of the cotton boll worm (Heliothis armigera).
After the specified period of time, the mortality in % is determined 100% means all caterpillars have been killed; 0% means none of the caterpillars have been killed. The mortality values determined thus are recalculated using the Colby-formula (see sheet 1).

[4] = system: mustard beetle larvae (Phaedon cochleariae); test: Phaedon cochleariae - spray test; details: 20 g ai/ha
Excerpt: as §1, §2, §3
To produce a suitable preparation of active compound, 1 part by weight of active compound is mixed with the stated amount of solvents and is diluted with water, containing an emulsifier concentration of 1000 ppm, to the desired concentration. […]
After the specified period of time, mortality in % is determined 100% means all beetle larvae have been killed and 0% means none of the beetle larvae have been killed. The mortality values determined thus are recalculated using the Colby-formula (see sheet 1).

C/C(=N\C#N)N(C)Cc1ccc(Cl)nc1 [Acetamiprid]
Efficacy in % after 6d ([1]; 1.6 g ai/ha): 70% | Efficacy in % after 6d ([2]; 0.8 g ai/ha): 0%

CN/C(=N\[N+](=O)[O-])NCc1cnc(Cl)s1 [Clothianidin]
Efficacy in % after 6d ([1]; 0.15 g ai/ha): 0% | Efficacy in % after 2d ([2]; 4 g ai/ha): 0%

CN/C(=N/CC1CCOC1)N[N+](=O)[O-] (stereo not drawn) [Dinotefuran]
Efficacy in % after 6d ([1]; 4.8 g ai/ha): 0% | Efficacy in % after 6d ([1]; 9.6 g ai/ha): 70% | Efficacy in % after 6d ([2]; 4 g ai/ha): 0% | Efficacy in % after 2d ([2]; 20 g ai/ha): 0%

O=[N+]([O-])NC1=NCCN1Cc1ccc(Cl)nc1 [Imidacloprid]
Efficacy in % after 2d ([2]; 0.8 g ai/ha): 0% | Efficacy in % after 2d ([2]; 4 g ai/ha): 0% | Efficacy in % after 1d ([3]; 80 ppm): 0% | Efficacy in % after 1d ([3]; 160 ppm): 0% | Efficacy in % after 1d ([3]; 320 ppm): 30% | Efficacy in % after 2d ([3]; 320 ppm, after 2 d): 70%

N#C/N=C1\SCCN1Cc1ccc(Cl)nc1 [Thiacloprid]
Efficacy in % after 1d ([1]; 0.8 g ai/ha, after 1 d): 0%

CN1COCN(Cc2cnc(Cl)s2)/C1=N\[N+](=O)[O-] [Thiamethoxam]
Efficacy in % after 2d ([4]; after 2 d, Chinese cabbage leaf disks): 0% | Efficacy in % after 6d ([4]; after 6 d): 0%

CS(=O)(=O)NC(=O)c1cccc(-c2cnc(-c3cccnc3)s2)n1 [Thiazolamid (II-11)]
Efficacy in % after 2d ([2]; 20 g ai/ha): 0%
